What is called MIC is the least concentration at which growth counts as inhibited. Read a high MIC as weaker potency.

Molecules are shown by their SMILES. Values after ≈ are worked out from the molar mass of the structure shown. Values joined by “and” are separate entries in the source; they are usually repeats but may differ in a detail not shown here. Identical values can stand only once. Where only a bound is given, the exact number is not on record here.

The results in this text go back to DBAASP.

Among the test systems are Escherichia coli TOP 10; Escherichia coli BW25113; Escherichia coli ML-35; Escherichia coli HB101; Escherichia coli ML-35p.
Common to all, as to test: ≥ marks a high value that may be exact or a test limit, other limits are often not marked, values filed in µg/mL are converted to µM
The test system of test [1] is Mycobacterium tuberculosis H37Rv.
The test system of test [2] is Staphylococcus aureus FDA 209P.
In test [3] the test system is Batrachochytrium dendrobatidis.
The test system of test [4] is Escherichia coli ATCC 25922.
For test [5], the system named is Bacillus subtilis ATCC 6633.
Test [6] deals with Escherichia coli ATCC 10536.
The subject of test [7] is Pseudomonas aeruginosa ATCC BAA-427.
Test [8] concerns Staphylococcus aureus ATCC 25923.
Test [9] concerns Staphylococcus aureus IFO 12732.
In test [10] the test system is Bacillus subtilis IFO 3513.
In test [11] the test system is Escherichia coli IFO 12734.
Test [12] concerns Candida albicans TIMM 1768.
Test [13] deals with Bacillus subtilis KCTC 1918.
Test [14] has as its system Trichosporon beigelii KCTC 7707.
For test [15], the system named is Pseudomonas aeruginosa KCTC 1637.
Test [16] concerns Salmonella typhimurium KCTC 1926.
Test [17] concerns Staphylococcus epidermidis KCTC 3096.
Test [18] deals with Escherichia coli BW25113 ΔsbmA.
Test [19] relates to Serratia marcescens ATCC 8100.
Test [20] relates to Salmonella enterica subsp. enterica serovar Typhimurium ATCC 14028.
In test [21] the test system is Malassezia sympodialis ATCC 42132.
Test [22] has as its system Staphylococcus aureus RN4220.

For `CC[C@H](C)[C@H](NC(=O)[C@@H]1CCCN1C(=O)[C@H](CCCN=C(N)N)NC(=O)CNC(=O)[C@H](C)NC(=O)[C@H](CCCN=C(N)N)NC(=O)[C@H](Cc1cnc[nH]1)NC(=O)[C@H](C)NC(=O)[C@H](C)N)C(=O)N[C@@H](Cc1cnc[nH]1)C(=O)N[C@@H](CC(=O)O)C(=O)N[C@@H](C)C(=O)NCC(=O)N[C@H](C(=O)N[C@H](C(=O)N[C@@H](CCCCN)C(=O)N[C@@H](CCC(N)=O)C(=O)O)C(C)C)C(C)C` [AAHRAGRPIHDAGVVKQ], in test [1], the MIC is at least 112 µM.

Take `CC[C@H](C)[C@H](NC(=O)CN)C(=O)N[C@@H](Cc1ccccc1)C(=O)N[C@@H](CO)C(=O)N[C@@H](CCCCN)C(=O)N[C@@H](CC(C)C)C(=O)N[C@@H](C)C(=O)NCC(=O)N[C@@H](CCCCN)C(=O)N[C@@H](CCCCN)C(=O)N[C@H](C(=O)N[C@@H](CCCCN)C(=O)N[C@@H](CC(N)=O)C(=O)N[C@@H](CC(C)C)C(=O)N[C@@H](CC(C)C)C(=O)N[C@H](C(=O)N[C@@H](CO)C(=O)NCC(=O)N[C@@H](CC(C)C)C(=O)N[C@@H](CCCCN)C(=O)N[C@@H](CC(N)=O)C(=O)N[C@H](C(=O)NCC(=O)N[C@@H](CCCCN)C(=O)N[C@@H](CCC(=O)O)C(=O)N[C@H](C(=O)NCC(=O)N[C@@H](CCSC)C(=O)N[C@@H](CC(=O)O)C(=O)N[C@H](C(=O)N[C@H](C(=O)N[C@@H](CCCN=C(N)N)C(=O)N[C@H](C(=O)NCC(=O)N[C@H](C(=O)N[C@@H](CC(=O)O)C(=O)N[C@H](C(=O)N[C@@H](C)C(=O)NCC(=O)N[C@H]1CSSC[C@@H](C(=O)O)NC(=O)[C@H](CCC(=O)O)NC(=O)CNC(=O)[C@H](CCCCN)NC(=O)[C@H]([C@@H](C)CC)NC(=O)[C@H](CCCCN)NC1=O)[C@@H](C)CC)[C@@H](C)CC)[C@@H](C)O)C(C)C)C(C)C)C(C)C)C(C)C)[C@@H](C)CC)[C@@H](C)CC` [GIFSKLAGKKIKNLLISGLKNVGKEVGMDVVRTGIDIAGCKIKGEC]: the MIC in test [2] was 4.3 µM (≈ 20.6 µg/mL); in test [3], 25 µM and 12.5 µM; in [4], 2.8 µM (≈ 13.4 µg/mL).

Regarding `CC[C@H](C)[C@H](N)C(=O)N[C@@H](CC(C)C)C(=O)NCC(=O)N[C@@H](CCCCN)C(=O)N[C@H](C(=O)N[C@@H](Cc1c[nH]c2ccccc12)C(=O)N[C@@H](CCC(=O)O)C(=O)NCC(=O)N[C@@H](CCCCN)C(=O)N[C@@H](CCCCN)C(=O)N[C@@H](CO)C(=O)N[C@@H](CC(C)C)C(=O)N[C@@H](Cc1ccccc1)C(N)=O)[C@@H](C)CC` [ILGKIWEGKKSLF], the MIC was 2 µM (≈ 3.04 µg/mL) in test [5]; 4 µM (≈ 6.07 µg/mL) in test [6]; 8 µM (≈ 12.1 µg/mL) in test [7]; 8 µM (≈ 12.1 µg/mL) in test [8]; 8 µM (≈ 12.1 µg/mL) in test [4].

On to `CC[C@H](C)[C@H](N)C(=O)N[C@@H](CC(C)C)C(=O)N1CCC[C@H]1C(=O)N[C@@H](CCCCN)C(=O)N[C@@H](CCCCN)C(=O)N[C@@H](CCCCN)C(=O)N1CCC[C@H]1C(=O)N[C@@H](Cc1c[nH]c2ccccc12)C(=O)N[C@@H](Cc1c[nH]c2ccccc12)C(=O)N1CCC[C@H]1C(=O)N[C@@H](Cc1c[nH]c2ccccc12)C(=O)N[C@@H](CCCN=C(N)N)C(=O)N[C@@H](CCCN=C(N)N)C(N)=O` [ILPKKKPWWPWRR], for which the MIC in test [9] was 3.49 µM (≈ 6.25 µg/mL); in test [10], 3.49 µM (≈ 6.25 µg/mL); in test [11], at least 55.8 µM.

Consider `CC[C@H](C)[C@H](N)C(=O)N[C@@H](CC(C)C)C(=O)N1CCC[C@H]1C(=O)N[C@@H](Cc1c[nH]c2ccccc12)C(=O)N[C@@H](CCCCN)C(=O)N[C@@H](CCCCN)C(=O)N1CCC[C@H]1C(=O)N[C@@H](CCCCN)C(=O)N[C@@H](CC(C)C)C(=O)N1CCC[C@H]1C(=O)N[C@@H](Cc1c[nH]c2ccccc12)C(=O)N[C@@H](CCCN=C(N)N)C(=O)N[C@@H](CCCN=C(N)N)C(N)=O` [ILPWKKPKLPWRR], for which the MIC in test [9] stood at 1.82 µM (≈ 3.13 µg/mL); in test [10], 0.908 µM (≈ 1.56 µg/mL); in [11], 7.28 µM (≈ 12.5 µg/mL).

For the molecule `CC[C@H](C)[C@H](NC(=O)CNC(=O)[C@@H](NC(=O)[C@H](CCCCN)NC(=O)[C@H](CCCCN)NC(=O)[C@H](Cc1ccccc1)NC(=O)[C@H](CC(C)C)NC(=O)[C@H](CCCCN)NC(=O)[C@H](Cc1c[nH]c2ccccc12)NC(=O)[C@H](CCCCN)NC(=O)[C@H](CCCCN)NC(=O)[C@H](CCCCN)NC(=O)[C@@H](N)CCCCN)[C@@H](C)CC)C(=O)NCC(=O)N[C@@H](CCCCN)C(=O)N[C@@H](Cc1ccccc1)C(=O)N[C@@H](CC(C)C)C(N)=O` [KKKKWKLFKKIGIGKFL], the minimum inhibitory concentration (MIC) stood at 12.5 µM (≈ 26.1 µg/mL) in test [12]; 3.12 µM (≈ 6.52 µg/mL) in test [13]; 6.25 µM (≈ 13.1 µg/mL) in [14]; 1.56 µM (≈ 3.26 µg/mL) in [15]; 0.19 µM (≈ 0.397 µg/mL) in [16]; 3.12 µM (≈ 6.52 µg/mL) in [17].

For the molecule `CC[C@H](C)[C@H](NC(=O)[C@H](CCCN=C(N)N)NC(=O)[C@@H](N)CCCN=C(N)N)C(=O)N[C@@H](CCCN=C(N)N)C(=O)N1CCC[C@H]1C(=O)N[C@@H](CCCN=C(N)N)C(=O)N1CCC[C@H]1C(=O)N1CCC[C@H]1C(=O)N[C@@H](CCCN=C(N)N)C(=O)N[C@@H](CC(C)C)C(=O)N1CCC[C@H]1C(=O)N[C@@H](CCCN=C(N)N)C(=O)N1CCC[C@H]1C(=O)N[C@@H](CCCN=C(N)N)C(=O)N1CCC[C@H]1C(=O)N[C@@H](CCCN=C(N)N)C(=O)N1CCC[C@H]1C(=O)N[C@@H](CC(C)C)C(=O)N1CCC[C@H]1C(=O)N[C@@H](Cc1ccccc1)C(=O)N1CCC[C@H]1C(=O)N[C@@H](CCCN=C(N)N)C(=O)N1CCC[C@H]1C(=O)O` [RRIRPRPPRLPRPRPRPLPFPRP], the minimal inhibitory concentration (MIC) against Escherichia coli TOP 10 was 4.6 µM (≈ 13.3 µg/mL); in the test on Escherichia coli BW25113, 7.4 µM (≈ 21.3 µg/mL); against Escherichia coli ML-35 it was 1 µM (≈ 2.88 µg/mL); in [18], at least 52.1 µM; in [19], 4 µM (≈ 11.5 µg/mL); against Escherichia coli HB101 it was 0.5 µM (≈ 1.44 µg/mL). For the same molecule, the MIC is over 128 µM in [8] and 2 µM (≈ 5.76 µg/mL) in test [20].

On to `NC(=O)[C@H](CCCN=C(N)N)NC(=O)[C@H](CCCN=C(N)N)NC(=O)[C@H](CCCN=C(N)N)NC(=O)[C@H](CCCN=C(N)N)NC(=O)[C@H](CCCN=C(N)N)NC(=O)[C@H](CCCN=C(N)N)NC(=O)[C@H](CCCN=C(N)N)NC(=O)[C@H](CCCN=C(N)N)NC(=O)[C@@H](N)CCCN=C(N)N` [RRRRRRRRR], for which the MIC against Escherichia coli ML-35p was at least 100 µM; in [21] it was 9.83 µM (≈ 14 µg/mL); in test [22] it was at least 100 µM.
